# Experimental data taken from patent publication US20090082395A1, “SOLUBLE EPOXIDE HYDROLASE INHIBITORS” (Arete Therapeutics, Inc., priority 2007, published 2009).
# Experiments:
# [1] = tested on: soluble epoxide hydrolase (sEH); assay: Fluorescent assay for mouse and human soluble epoxide hydrolase (CMNPC substrate); assay type: biochemical; settings: recombinant sEH, species (mouse or human) not given
# Text: Fluorescent Assay for Mouse and Human Soluble Epoxide Hydrolase
# Recombinant mouse sEH (MsEH) and human sEH (HsEH) were produced in a baculovirus expression system as previously reported. Grant et al., J. Biol. Chem., 268:17628-17633 (1993); Beetham et al., Arch. Biochem. Biophys., 305:197-201 (1993). The expressed proteins were purified from cell lysate by affinity chromatography. Wixtrom et al., Anal. Biochem., 169:71-80 (1988). Protein concentration was quantified using the Pierce BCA assay using bovine serum albumin as the calibrating standard. The preparations were at least 97% pure as judged by SDS-PAGE and scanning densitometry. They contained no detectable esterase or glutathione transferase activity which can interfere with the assay. The assay was also evaluated with similar results in crude cell lysates or homogenate of tissues.
# The IC50s for each inhibitor were according to the following procedure:
# Cyano(2-methoxynaphthalen-6-yl)methyl (3-phenyloxiran-2-yl)methyl carbonate (CMNPC; Jones P. D. et. al.; Analytical Biochemistry 2005; 343: pp. 66-75)
# Bis/Tris HCl 25 mM pH 7.0 containing 0.1 mg/mL of BSA (buffer A)
# CMNPC at 0.25 mM in DMSO.
# Mother solution of enzyme in buffer A (Mouse sEH at 6 μg/mL and Human sEH at 5 μg/mL). Inhibitor dissolved in DMSO at the appropriate concentration.
# In a black 96 well plate, fill all the wells with 150 μL of buffer A. Add 2 μL of DMSO in well A2 and A3, and then add 2 μL of inhibitor solution in A1 and A4 through A12. Add 150 μL of buffer A in row A, then mix several time and transfer 150 μL to row B. Repeat this operation up to row H. The 150 μL removed from row H go to the trash. Add 20 μL of buffer A in column 1 and 2, then add 20 μL of enzyme solution to column 3 to 12. Incubate the plate for 5 minutes in the plate reader at 30° C. During incubation prepare the working solution of substrate by mixing 3.68 mL of buffer A (4×0.920 mL) with 266 μL (2×133 μL) of substrate solution). At t=0, add 30 μL of working substrate solution with multi-channel pipette labeled “Briggs 303” and start the reading ([S]final: 5 μM). Read with ex: 330 nm (20 nm) and em: 465 nm (20 nm) every 30 second for 10 minutes. The velocities are used to analyze and calculate the IC50s.
SMILES,% Inh ([1]; compound concentration 2000 nM) [%],melting point [°C],% Inh ([1]; compound concentration 50 nM) [%],% Inh ([1]; compound concentration 500 nM) [%]
"O=C(Nc1ccc(C(F)(F)F)cc1)Nc1ccc2ncccc2c1 [Compound 1, 1-(quinolin-6-yl)-3-(4-(trifluoromethyl)phenyl)urea]",98,259 to 263,,
"O=C(Nc1ccc2c(c1)OCCO2)NC12CC3CC(CC(C3)C1)C2 [Compound 2, 1-adamantan-1-yl-3-(2,3-dihydrobenzo[b][1,4]dioxin-6-yl)urea]",98,,,
"O=C(Nc1ccc(C(F)(F)F)cc1)Nc1ccc2c(c1)OC(F)(F)O2 [Compound 3, 1-(2,2-difluorobenzol[d][1,3]dioxol-5-yl)-3-(4-(trifluoromethyl)phenyl)urea]",,195 to 200,91,
"O=C(Nc1ccc(Cl)cc1)Nc1ccc2[nH]c(C(F)(F)F)nc2c1 [Compound 4, 1-(4-chlorophenyl)-3-(2-(trifluoromethyl)-1H-benzo[d]imidazol-5-yl)urea]",,264 to 268,,91
"O=C(Nc1cccc(C(F)(F)F)c1)Nc1ccc2c(c1)OC(F)(F)O2 [Compound 5, 1-(2,2-difluorobenzo[d][1,3]dioxol-5-yl)-3-(3-(trifluoromethyl)phenyl)urea]",,,,89
"Cc1cc2cc(NC(=O)Nc3ccc(Cl)cc3)ccc2[nH]1 [Compound 6, 1-(4-chlorophenyl)-3-(2-methyl-1H-indol-5-yl)urea]",,257 to 260,89,
"O=C(Nc1ccc(Cl)cc1)Nc1ccc2c(c1)OC(F)(F)O2 [Compound 7, 1-(4-chlorophenyl)-3-(2,2-difluorobenzo[d][1,3]dioxol-5-yl)urea]",,231 to 233,95,
"Cn1ncc2cc(NC(=O)Nc3ccc(C(F)(F)F)cc3)ccc21 [Compound 8, 1-(1-methyl-1H-indazol-5-yl)-3-(4-(trifluoromethyl)phenyl)urea]",,252 to 254,92,
"Cc1cc2cc(NC(=O)NC34CC5CC(CC(C5)C3)C4)ccc2[nH]1 [Compound 9, 1-adamantan-1-yl-3-(2-methyl-1H-indol-5-yl)urea]",,146 to 152,85,
"O=C(Nc1ccc2c(c1)OC(F)(F)O2)NC12CC3CC(CC(C3)C1)C2 [Compound 10, 1-adamantan-1-yl-3-(2,2-difluorobenzo[d][1,3]dioxol-5-yl)urea]",,213 to 215,99,
"Cc1nc2cc(NC(=O)Nc3ccc(C(F)(F)F)cc3)ccc2o1 [Compound 11, 1-(2-methylbenzo[d]oxazol-5-yl)-3-(4-(trifluoromethyl)phenyl)urea]",,240 to 243,98,
"Cc1nc2cc(NC(=O)Nc3cccc(C(F)(F)F)c3)ccc2o1 [Compound 12, 1-(2-methylbenzo[d]oxazol-5-yl)-3-(3-(trifluoromethyl)phenyl)urea]",,184 to 186,,93
"Cc1nc2cc(NC(=O)NC34CC5CC(CC(C5)C3)C4)ccc2s1 [Compound 13, 1-adamantan-1-yl-3-(2-methylbenzo[d]thiazol-5-yl)urea]",,209 to 214,92,
"O=C(Nc1ccc(C(F)(F)F)cc1)Nc1ccc2[nH]c(C(F)(F)F)nc2c1 [Compound 14, 1-(2-(trifluoromethyl)-1H-benzo[d]imidazol-5-yl)-3-(4-(trifluoromethyl)phenyl)urea]",,223 to 228,80,
"O=C(Nc1ccc2[nH]c(C(F)(F)F)nc2c1)NC12CC3CC(CC(C3)C1)C2 [Compound 15, 1-adamantan-1-yl-3-(2-(trifluoromethyl)-1H-benzo[d]imidazol-5-yl)urea]",,189 to 192,,93
"O=C(Nc1cccc(C(F)(F)F)c1)Nc1ccc2nc(C(F)(F)F)[nH]c2c1 [Compound 16, 1-(2-(trifluoromethyl)-1H-benzo[d]imidazol-5-yl)-3-(3-(trifluoromethyl)phenyl)urea]",,213 to 215,,85
"O=C(Nc1cccc(C(F)(F)F)c1)Nc1ccc2c(c1)COC2=O [Compound 17, 1-(1-oxo-1,3-dihydroisobenzofuran-5-yl)-3-(3-(trifluoromethyl)phenyl)urea]",,279 to 282,86,
"O=C(Nc1ccc(C(F)(F)F)cc1)Nc1ccc2c(c1)COC2=O [Compound 18, 1-(1-oxo-1,3-dihydroisobenzofuran-5-yl)-3-(4-(trifluoromethyl)phenyl)urea]",,,87,
